Assay results published in US10612071B2, “Method of measuring the deleterious effects of non-caloric artificial sweeteners on enzymatic hydrolysis of sucrose measured in real time” (California State University, Fresno, priority 2016, dated 2020).
“Also recorded” adds a separate entry of the source. Each block holds one molecule with its values, some of them ahead of it.

How the values were obtained:
Type in all cases: biochemical, S. cerevisiae
[1] = target: T1, Invertase (EC 3.2.1.26, β-fructofuranosidase) (Saccharomyces cerevisiae, UniProt P00724); test: Real-time 1H-NMR (qNMR) progress curve analysis of invertase-catalysed sucrose hydrolysis, Lambert-W fit; settings: for β-anomer of glucose formed: in the presence of sucralose (FIG. 5); for α-anomer of glucose formed: in the presence of sucralose (FIG. 5, 50 mM each)
T1 construct: purchased Sigma-Aldrich
Description: Equation [5], derived from Equation [2], relates the substrate concentration at any time ([S]) to its initial concentration ([S]0), the Michaelis-Menten kinetic parameters Vmax and KM. Equation [5] is used to fit the real time experimental data obtained for enzyme kinetics using the analysis code written using R-Statistical environment (R Core Team 2014).
(§1) Invertase (EC 3.2.1.26, β-fructofuranosidase, S. cerevisiae) was purchased from Sigma-Aldrich with a specific activity of >300 u/mg of solid (pH 4.6, 303 K).
Two standard samples were made in standard 5 mm NMR tubes to set up the NMR parameter.
All NMR kinetics solutions were made in an Eppendorf tube with a volume of 550 μL prior to adding 100 μL of invertase into the Eppendorf tube then transferring 600 μL of the solution into a NMR tube. The 100 μL invertase solution was added into the Eppendorf tube when the NMR kinetics experiment was ready to start. A timer was set at the beginning of the addition of the invertase solution in order to account for the delay time (the time before the collection of the NMR spectra) as this is a crucial part of the latter calculation.
^1H-NMR time-course data were collected in real time by qNMR (Vairan-Agilent, VNMRS system) and the kinetic data were subsequently processed using a non-linear least square fit procedure by using the Lambert-W function. This method was applied to determine the effect on the enzyme kinetics of hydrolysis, a fundamental step in converting the sucrose to glucose and fructose. Experimental results obtained using the direct real-time measurements were validated using a glucometer based approach.
The spectrometer software is used to find the integration under each peak of the sucrose (5.41 ppm) and TSP (0.0 ppm). The concentration of the sucrose peak is calculated with reference to the known concentration of TSP. If multiple experiments are performed, averages and standard deviations of the integrations of the trials at each temperature is calculated. A two-column excel or text (tab limited format) with X=Time and Y=[S] is produced as the input to the R-program. The written code utilizes the following external libraries: spatstat and gsl (to implement functions such as LambertW function), xtable (for table manipulations) and ggplot2 (to make plots (optional)). The R-code reads the input file and creates a data fit, statistics and plot with the experimental and fitted values. Typically the procedure works with a minimum of 15 time points sampled uniformly over the experimental time period chosen and it utilizes a non-linear least square fitting procedure. In addition to generating a plot (FIG. 10A), the code generates a file in picture format (.png) and a tab-limited text file that can be imported into other plotting routines. The statistical parameters of the fit (FIG. 10B) are also available in a tabular form for reporting purposes, which includes the fitted values (Coef.), standard error of the fit, t-statistics and p-value for each of the parameters. If the signal has not decayed to zero, an additional parameter (FIG. 10B) can be used as an offset.

[2] = target: T1, Invertase (EC 3.2.1.26, β-fructofuranosidase); test: Glucometer-based Michaelis-Menten kinetics of invertase-catalysed sucrose hydrolysis; settings: for reaction velocity of the sucrose: sucralose 20 mM or lower (FIG. 11)
Description: as §1

[3] = substrate: OC[C@H]1O[C@@](CO)(O[C@H]2O[C@H](CO)[C@@H](O)[C@H](O)[C@H]2O)[C@@H](O)[C@@H]1O; test: Real-time 1H-NMR (qNMR) progress curve analysis of invertase-catalysed sucrose hydrolysis, Lambert-W fit; settings: 30.0 °C
[4] = other: Average of three trials, sucrose 42 mM, no sucralose
[5] = other: Trial 1, sucrose 42 mM, no sucralose
[6] = other: Trial 2, sucrose 42 mM, no sucralose
[7] = other: Trial 3, sucrose 42 mM, no sucralose
[8] = other: no sucralose (0 mM), sucrose 40 mM, sucrose:sucralose 1:0

Vmax ([1]; no sucralose (0 mM), sucrose 40 mM, sucrose:sucralose 1:0): 2.57 ± 0.03 µM/min
Molecule: OC[C@H]1O[C@@](CO)(O[C@H]2O[C@H](CO)[C@@H](O)[C@H](O)[C@H]2O)[C@@H](O)[C@@H]1O [sucrose]

decrease of the maximal velocity (Vmax) ([1]; 1:2 ratio of sucrose:sucralose): ~33%
enzyme catalytic activity inhibited ([1]; 1:2 ratio of sucrose:sucralose): 50%
increase of the KM value ([1]; 1:2 ratio of sucrose:sucralose): ~50%
decrease of the maximal velocity (Vmax) ([1]; addition of sucralose (50 mM)): 37%
β-anomer of glucose formed ([1]; after 20 minutes): about 7 mM
sucrose concentration remaining ([1]; after 60 minutes of enzymatic conversion, in the presence of sucralose, starting sucrose 50 mM (FIG. 4)): about 15 mM
β-anomer of glucose formed ([1]; after 60 minutes): about 10 mM
α-anomer of glucose formed ([1]; after 60 minutes): about 22 mM
β-anomer of glucose formed ([1]; after 120 minutes): about 17 mM
α-anomer of glucose formed ([1]; after 120 minutes): about 22.5 mM
Vmax ([1]; in the presence of sucralose, FIG. 4 (equimolar sucrose:sucralose, ~50 mM each)): 1.87 µM/min
decrease of Vmax per unit increase of sucralose ([1]; regression line, FIG. 12B): 6.54 ± 0.03 µM/min
decrease of catalytic efficiency of the enzyme per unit increase of sucralose (in mM) ([1]; regression line, FIG. 12C): 152.1 mM^2/min
Vmax ([1]; sucralose 1 mM, sucrose 40 mM (40:1)): 2.71 ± 0.04 µM/min
Vmax ([1]; sucralose 5 mM, sucrose 40 mM (8:1)): 2.95 ± 0.04 µM/min
Vmax ([1]; sucralose 10 mM, sucrose 40 mM (4:1)): 2.61 ± 0.03 µM/min
Vmax ([1]; sucralose 20 mM, sucrose 40 mM (2:1)): 2.49 ± 0.02 µM/min
Vmax ([1]; sucralose 40 mM, sucrose 40 mM (1:1)): 2.25 ± 0.02 µM/min
increase of the KM value ([1]; sucralose 50 mM): more than 20%
reduction of the enzymatic activity of the invertase ([1]; sucralose 50 mM): 20%
Vmax ([1]; sucralose 60 mM, sucrose 40 mM (1:1.5)): 1.87 ± 0.02 µM/min
Vmax ([1]; sucralose 80 mM, sucrose 40 mM (1:2)): 1.72 ± 0.02 µM/min
inhibition (substrate inhibition model curve) ([2]; molar ratio of sucrose to sucralose 1:0.25 (FIG. 13)): more than 50%
reaction velocity of the sucrose ([2]; substrate concentration 0.1 M): over 0.4 M/min
reaction velocity of the sucrose ([2]; substrate concentration about 0.27 M): over 0.4 M/min
Molecule: OC[C@H]1O[C@H](O[C@]2(CCl)O[C@H](CCl)[C@@H](O)[C@@H]2O)[C@H](O)[C@@H](O)[C@H]1Cl [sucralose]
conversion of sucralose by enzymatic hydrolysis (invertase) ([1]; sucralose concentration during sucrose hydrolysis): not affected by enzymatic hydrolysis; also recorded: not converted

B1: Invertase (EC 3.2.1.26, β-fructofuranosidase) (Saccharomyces cerevisiae S288C) (protein)
chain: SMTNETSDRPLVHFTPNKGWMNDPNGLWYDEKDAKWHLYFQYNPNDTVWGTPLFWGHATSDDLTNWEDQPIAIAPKRNDSGAFSGSMVVDYNNTSGFFNDTIDPRQRCVAIWTYNTPESEEQYISYSLDGGYTFTEYQKNPVLAANSTQFRDPKVFWYEPSQKWIMTAAKSQDYKIEIYSSDDLKSWKLESAFANEGFLGYQYECPGLIEVPTEQDPSKSYWVMFISINPGAPAGGSFNQYFVGSFNGTHFEAFDNQSRVVDFGKDYYALQTFFNTDPTYGSALGIAWASNWEYSAFVPTNPWRSSMSLVRKFSLNTEYQANPETELINLKAEPILNISNAGPWSRFATNTTLTKANSYNVDLSNSTGTLEFELVYAVNTTQTISKSVFADLSLWFKGLEDPEEYLRMGFEVSASSFFLDRGNSKVKFVKENPYFTNRMSVNNQPFKSENDLSYYKVYGLLDQNILELYFNDGDVVSTNTYFMTTGNALGSVNMTTGVDNLFYIDKFQVREVK
notes: purchased Sigma-Aldrich
Km [3, 4]: 38.57 ± 3.72 mM
Vmax [3, 4]: 2.54 ± 0.18 µM/min
Km [3, 5]: 34.69 ± 3.96 mM
Vmax [3, 5]: 2.34 ± 0.18 µM/min
Km [3, 6]: 43.59 ± 11.90 mM
Vmax [3, 6]: 2.77 ± 0.54 µM/min
Km [3, 7]: 37.44 ± 7.79 mM
Vmax [3, 7]: 2.51 ± 0.36 µM/min
Km [3, 8]: 50.60 mM
Vmax [3, 8]: 2.57 ± 0.03 µM/min
